Results from patent publication US6498254B1, “Antiretroviral compounds and compositions” (Uniroyal Chemical Company, Inc., priority 2001, dated 2002).
In brackets after ≈: the same amount, converted by molar mass. Where two headings read alike, the source gives them in different places.

How the values were obtained:
HIV-1 (IIIB) = assay: Inhibition of HIV-1 syncytium formation in CEM cells; format: cell-based; settings: for HIV-1 % Protection: protection of CEM cells against virus-induced cytopathicity at the compound concentration in the previous column; for EC50: read-out: EC50 (μg/ml) HIV-1
Source text: (§1) The cell type used to determine activity of the compounds of the invention herein, i.e., the test compounds, against HIV was human T-lymphoblast (CEM) cells obtained from the American Tissue Cell Culture Collection (Rockville, Md.). HIV-1 (IIIB) was originally obtained from the culture of persistently HIV-1 infected H9 cells and was provided by R. C. Gallo and M. Popovic (National Cancer Institute, National Institutes of Health, Bethesda, Md.). HIV-2 (ROD) was originally obtained from L. M. Montagnier (Pasteur Institute, Paris, France).
(§2) To determine the antiviral activity of the test compounds, CEM cells were suspended at a cell density of approximately 300,000 cells per ml of culture medium and infected with approximately 100 CClD50 (100 CClD50 being the 50% cell culture infective dose) of HIV-1 (IIIB) or HIV-2 (ROD)). Then 100 μl of the infected cell suspensions was added to 200 μl micro titer plate wells containing 100 μl of appropriate serial (5-fold) dilutions of the test compounds. The inhibitory effect of the test compounds on HIV-1 or HIV-2 syncytium formation in CEM cells was examined microscopically on day four post infection. The 50% effective concentration (EC50) was defined as the test compound concentration that inhibits syncytium formation in the HIV-1 or HIV-2 infected cell cultures by 50%.
(§3) In some cases, the compounds had considerable cytotoxicity to CEM cells which made determination of the EC50 difficult. In these cases, the percent protection of the cells against virus-induced cytopathicity by the test compounds at the indicated compound concentration in the previous column is given.

HIV-2 (ROD) = assay: Inhibition of HIV-2 syncytium formation in CEM cells; format: cell-based; settings: for HIV-2 % Protection: protection of CEM cells against virus-induced cytopathicity at the compound concentration in the previous column; for EC50: Human immunodeficiency virus 2, CCRF-CEM, read-out: EC50 (μg/ml) HIV-2
Source text: as §1, §2, §3

CMV Davis strain = assay: Activity against HCMV: virus-induced cytopathicity in HEL cells; format: cell-based, human cytomegalovirus (HCMV); settings: for IC50: read-out: Antiviral IC50 (μg/ml) Davis strain; for Antiviral % Inhibition Davis strain: estimate of percent protection of HEL cells at the compound concentration
Protocol: Confluent HEL cells grown in […] microtiter plates were inoculated with CMV at an input of 100 PFU (plaque forming units) per well. After a one to two hour incubation period, residual virus was removed and the infected cells were further incubated with MEM (Minimal Essential Medium) (supplemented with 2% inactivated Fetal Calf Serum (FCS), […], and 0.3% sodium bicarbonate) containing varying concentrations of the test compounds. Antiviral activity was expressed as EC50 (50% effective concentration), or test compound concentration required to reduce virus-induced cytopathicity after seven days by 50% compared to the untreated control.
In some cases, the compounds had considerable cytotoxicity against HEL cells, which made determination of the EC50's difficult. In these cases, an estimate of the percent protection at the compound concentration indicated in the previous columns is given.

[1] = HIV-1 (IIIB) infected CEM cells, syncytium formation, day four post infection
[2] = HIV-2 (ROD) infected CEM cells, syncytium formation, day four post infection
[3] = CMV-infected HEL cells, virus-induced cytopathicity after seven days
[4] = Human immunodeficiency virus 1, IIIB, CCRF-CEM
[5] = Human betaherpesvirus 5, HEL, 168 h
[6] = Human immunodeficiency virus 1, CCRF-CEM, HIV-1 (IIIB) infected CEM cells, syncytium formation, day four post infection
[7] = Human betaherpesvirus 5, 168 h, CMV-infected HEL cells, virus-induced cytopathicity after seven days

Row | Compound | EC50 (μg/ml) HIV-1 (HIV-1 (IIIB); [1]) [µg/mL] | HIV-1 % Protection (HIV-1 (IIIB)) [%] | EC50 (μg/ml) HIV-2 (HIV-2 (ROD); [2]) [µg/mL] | HIV-2 % Protection (HIV-2 (ROD)) [%] | Antiviral IC50 (μg/ml) Davis strain (CMV Davis strain; [3]) [µg/mL] | EC50 (HIV-1 (IIIB); [4]) [µg/mL] | EC50 (HIV-2 (ROD)) [µg/mL] | IC50 (CMV Davis strain; [5]) [µg/mL] | Antiviral % Inhibition Davis strain (CMV Davis strain) [%] | EC50 (HIV-1 (IIIB); [6]) [µg/mL] | EC50 (HIV-2 (ROD); [2]) [µg/mL] | IC50 (CMV Davis strain; [7]) [µg/mL]
1 | 2-[(3-methoxy-4-benzyloxy)phenylmethylsulfonyl]pyridine-N-oxide [Compound 61] | >4 | 0.0 | >4.0 | 6.0 | 14.0 | – | – | – | – | – | – | –
2 | CN1CCCC(CSc2cccc[n+]2[O-])C1 (stereo not shown) [Compound 156, 2-(N-methyl-3-piperidylmethylthio)pyridine-N-oxide] | – | – | – | 0.0 | – | 16 (≈ 67.1 µM) | > 100 | > 50 | 0.0 | – | – | –
3 | 2-(2,5-dimethylphenyl)methylsulfinyl)pyridine [Compound 163] | 3.25 | – | >100 | 0.0 | >50 | – | – | – | 0.0 | – | – | –
4 | Cc1ccc(C)c(C(C)S(=O)(=O)c2c(Cl)ccc[n+]2[O-])c1 (stereo not shown) [Compound 124, 3-chloro-2-[[1-(2,5-dimethylphenyl)ethyl]sulfonyl]pyridine-N-oxide] | – | 0.0 | – | 0.0 | – | – | – | – | 10.0 | > 0.8 | > 0.8 | > 5
5 | 1,4-xylyl-bis-2-sulfonyl pyridine-N-oxide [Compound 23] | – | 37.5 | – | 37.5 | >20 | – | – | – | 20.0 | – | – | –
6 | Cc1ccc(C)c(C(Cl)S(=O)(=O)c2c(Cl)ccc[n+]2[O-])c1 (stereo not shown) [Compound 125, 3-chloro-2-[[chloro-(2,5-dimethylphenyl)methyl]sulfonyl]pyridine-N-oxide] | – | 0.0 | – | 0.0 | – | – | – | – | – | > 4 | > 4 | 31.5 (≈ 91 µM)
7 | Cc1ccc([N+](=O)[O-])c(CS(=O)(=O)c2cccc[n+]2[O-])c1 [Compound 62, 2-[[(2-nitro-5-methylphenyl)methyl]sulfonyl]pyridine-N-oxide] | – | – | – | – | – | – | – | – | 20.0 | 1.9 (≈ 6.16 µM) | 5 (≈ 16.2 µM) | > 5
8 | Cc1ccc[n+]([O-])c1[S+]([O-])Cc1c(Cl)cccc1Cl (stereo not shown) [Compound 138, 2-[[(2,6-dichlorophenyl)methyl]sulfinyl]-3-methyl-pyridine-N-oxide] | – | 0.0 | – | 0.0 | – | – | – | – | 20.0 | > 100 | > 100 | > 50
9 | COc1cc(C=C(C#N)Sc2cccc[n+]2[O-])cc(OC)c1OC [Compound 160, 2-[1-cyano-2-(3,4,5-trimethoxyphenyl)ethenethio]pyridine-N-oxide] | – | 0.0 | – | 0.0 | – | > 20 | > 20 | 7 (≈ 20.3 µM) | – | – | – | –
10 | COCC(c1cc(C)ccc1C)S(=O)(=O)c1ccccn1 (stereo not shown) [Compound 123, 2-[[1-(2,5-dimethylphenyl)-2-methoxyethyl]sulfonyl]pyridine] | – | – | – | 0.0 | – | – | – | – | 40.0 | 60 (≈ 196 µM) | > 100 | > 50
11 | Cc1ccc(CS(=O)(=O)c2cccc[n+]2[O-])cc1[N+](=O)[O-] [Compound 67, 2-[[(3-nitro-4-methylphenyl)methyl]sulfonyl]pyridine-N-oxide] | – | – | – | – | – | – | – | – | 20.0 | 2.3 (≈ 7.46 µM) | 2.4 (≈ 7.78 µM) | > 50
12 | COc1ccc(C=C(C#N)Sc2cccc[n+]2[O-])cc1 [Compound 159, 2-[1-cyano-2-(p-methoxyphenyl)ethenethio]pyridine-N-oxide] | – | 0.0 | – | 25.0 | – | > 20 | > 20 | 10 (≈ 35.2 µM) | – | – | – | –
13 | Cc1ccc(C)c(C(Cl)S(=O)(=O)c2cccc(C)[n+]2[O-])c1 (stereo not shown) [Compound 73, 2-[(2,5-dimethylphenyl)chloromethylsulfonyl]-6-methylpyridine-N-oxide] | – | – | – | 0.0 | – | – | – | – | 40.0 | 2.8 (≈ 8.59 µM) | > 100 | > 20
14 | O=[N+]([O-])c1cccnc1SCc1ccccc1 [Compound 146, 2-benzylthio-3-nitropyridine] | – | – | – | 37.5 | – | 2.3 (≈ 9.34 µM) | ≥ 20 | 40 (≈ 162 µM) | – | – | – | –
15 | Cc1ccc(C)c(CSc2ccccn2)c1.Cl [Compound 157, 2-(2,5-dimethylphenylmethylthio)pyridine hydrochloride] | – | – | – | 37.5 | – | – | – | – | 0.0 | 6 | ≥ 20 | > 50
16 | CC(C)c1cc(CS(=O)(=O)c2cccc[n+]2[O-])c(C(C)C)cc1Br [Compound 63, 2-[[[2,5-bis(1-methylethyl)-4-bromophenyl]methyl]sulfonyl]pyridine-N-oxide] | – | – | – | – | – | – | – | – | – | 2.3 (≈ 5.58 µM) | 2.5 (≈ 6.06 µM) | 3.7 (≈ 8.97 µM)
17 | O=[N+]([O-])c1ccc(CS(=O)(=O)c2cccc[n+]2[O-])c(Cl)c1 [Compound 69, 2-[[(2-chloro-4-nitrophenyl)methyl]sulfonyl]pyridine-N-oxide] | – | – | – | – | – | – | – | – | 20.0 | 2.9 (≈ 8.82 µM) | 2.9 (≈ 8.82 µM) | > 5
18 | [O-][n+]1cccc(Cl)c1[S+]([O-])Cc1ccccc1 (stereo not shown) [Compound 136, 3-chloro-2-[(phenylmethyl)sulfinyl]pyridine-N-oxide] | – | – | – | 0.0 | – | – | – | – | – | 1.5 (≈ 5.6 µM) | > 4 | 4.7 (≈ 17.6 µM)
19 | O=S(=O)(Cc1c2ccccc2cc2ccccc12)c1cccc[n+]1[O-] [Compound 51, 2[1-(9-anthryl)methylsulfonyl]pyridine-N-oxide] | – | 0.0 | – | 0.0 | – | – | – | – | – | > 0.8 | > 0.8 | 1.3 (≈ 3.72 µM)
20 | Cc1ccc(C)c(CS(=O)(=O)c2ccccn2)c1 [Compound 150, 2-(2,5-dimethylbenzylsulfonyl)pyridine] | – | – | – | – | – | – | – | – | 20.0 | 3.25 (≈ 12.4 µM) | 20 (≈ 76.5 µM) | > 50
21 | Cc1ccc(C)c(CS(=O)(=O)c2cccc(Cl)[n+]2[O-])c1 [Compound 77, 2-(2,5-dimethylphenylmethylsulfonyl)-6-chloropyridine-N-oxide] | – | – | – | 0.0 | – | – | – | – | – | 0.7 (≈ 2.25 µM) | > 0.8 | 11 (≈ 35.3 µM)
